Measured values published in patent publication US20130288956A1, “COMBINED PHARMACEUTICAL COMPOSITION AS ANTIFUNGAL AGENT” (priority 2010, published 2013).
Numbered stars: 1 amine (or outer) side, 2 acyl side, 3 side chain; on linkers, the order of the positions; unused ones are H or OH. Bridge positions count the residues as written; N and C are the ends. Square brackets hold non-standard residues; d marks the D form. Peptide text beside a SMILES is read from it. * marks the point of attachment. hTyr(3S-OH,4S-OH,3'-OSO3H) = N[C@H](C(=O)O)[C@H](O)[C@@H](O)c1ccc(O)c(OS(=O)(=O)O)c1; Orn(4R-OH,5R-OH) = O=C([C@H](C[C@@H](O)[C@@H](O)N[*:3])N[*:1])[*:2]; Pro(3S-OH,4S-Me) = C[C@H]1CN[C@H](C(=O)O)[C@H]1O; X1 = CCCCCOc1ccc(-c2cc(-c3ccc(C(=O)*)cc3)no2)cc1; Gln(3R-OH) = NC(=O)C[C@@H](O)[C@H](N)C(=O)O; Hyp = O=C(O)[C@@H]1C[C@@H](O)CN1

Key:
[1] = test system: A. flavus strain IFM50915; experiment: A. flavus respiratory tract infection model; format: in vivo, mice
Method: (§1) Female DBA/2N mice (age 8 weeks, Charles River Laboratories Japan, Inc.) were subcutaneously administered 200 mg/kg of 5-fluorouracil 5 or 6 days prior to infection in order to put the mice into a compromised state.
(§2) A. fumigatus strain IFM52108 and A. flavus strain IFM50915 were used.
A liquid containing spores of A. flavus strain IFM50915 stored at −80° C. was thawed, and the number of spores was counted using a hemocytometer followed by diluting with sterile physiological saline containing 0.05% Tween 80 to a concentration of 0.6×10^6 cells/mL to 1.0×10^6 cells/mL to obtain an inoculation fungus liquid.
(§3) 50 μl of inoculation fungus liquid were inoculated into the nasal cavities of 9-week-old mice at 0.3×10^5 cells/mouse to 1.25×10^5 cells/mouse under Ketalar anesthesia.
(§4) 0.1 mL to 0.2 mL of each drug solution (dissolved in sterile physiological saline or 5% glucose solution, or dissolved in sterile physiological saline or 5% glucose solution containing 6.5% dimethylsulfoxide and 3.5% Tween 80) was administered to the individual and combination dose groups either into the peritoneal cavity or into the stomach using a gastric cannula corresponding to the administration route of the drug for 3 to 4 days at the rate of 1 to 2 times per day starting 0.5 hours to 1 hour after inoculation of fungus.
(§5) There were 5 to 9 animals in each group.
(§6) Infection protection results were assessed on survival rate 14 days after infection.

[2] = test system: A. fumigatus strain IFM52108; experiment: A. fumigatus respiratory tract infection model; format: in vivo, mice; settings: for Combination effects in mouse Aspergillus fumigatus infection model: combination with the test compound of the invention
Method: as §1, §2
A liquid containing spores of A. fumigatus strain IFM52108 stored at −80° C. was applied to Potato Dextrose agar medium (PDA, Eiken Chemical Co., Ltd.) followed by static culturing for 5 to 7 days at 35° C. and suspending in sterile physiological saline containing 0.05% Tween 80.
The number of spores was counted using a hemocytometer, and the liquid was diluted with sterile physiological saline containing 0.05% Tween 80 to a concentration of 1.2×10^6 cells/mL to 2.5×10^6 cells/mL to obtain an inoculation fungus liquid.
as §3, §4, §5, §6

C. albicans = experiment: In vitro combination effects, checkerboard method by micro dilution (FIC index); format: cell-based, Candida albicans; settings: C. albicans (20 strains); combination use with Test Compound 1
Method: (§7) A clinically isolated strain retained by the Medical Mycology Research Center of Chiba University (Code No. IFM) and a clinically isolated strain retained by the Life Science Research Center of Gifu University (Code No. E) were used as Candida and Aspergillus strains.
(§8) Fungus liquid obtained by static culturing at 35° C. for 48 hours in Sabouraud Dextrose liquid medium (SDB, Becton, Dickinson and Co.) was diluted with RPMI 1640 medium (Nissui Pharmaceutical Co., Ltd.) containing 0.165 M 3-(N-morpholino)propanesulfonic acid (MOPS) to prepare a fungus liquid having a fungus concentration of 1×10^3 cells/mL to 2×10^3 cells/mL.
(§9) Test Compound 1 (0.0005 μg/mL to 1.56 μg/mL) in the horizontal rows (12 wells) of a 96-well flat-bottom plate, and an antifungal agent in the form of ravuconazole (0.0015 μg/mL to 6.25 μg/mL), fluconazole (0.008 μg/mL to 32 μg/mL), voriconazole (0.0002 μg/mL to 8 μg/mL), micafungin (0.0005 μg/mL to 0.25 μg/mL), caspofungin (0.0005 μg/mL to 1 μg/mL) or amphotericin B (0.008 μg/mL to 8 μg/mL) in the vertical rows (8 wells) of the flat-bottom plate were prepared by diluting so as to blend together using RPMI 1640 medium containing 0.165 M MOPS to obtain a control group, a single Test Compound 1 group, each one of antifungal agents groups and combination groups of Test Compound 1+each one of antifungal agents.
(§10) The fungus liquids prepared in (1) were inoculated into the wells of 96-well flat-bottom plate containing 20 μL/well to 75 μL/well of the diluted test drug liquids prepared in (2) at 80 μL/well to 125 μL/well, followed by aerobically static culturing for 25 hours to 48 hours at 35° C.
(§11) Combination effects of Test Compound 1 and the antifungal agents were measured with the checkerboard method by micro dilution.
(§12) Interaction between both drugs was assessed by calculating the FIC index using the calculation formula indicated below.
(§13) The FIC index was calculated for each combination of antifungal agent concentrations that inhibited fungal growth, and the minimum value of the resulting FIC index was used as a combination FIC index.
(§14) A combination FIC index of 0.5 or less was evaluated as indicating synergistic action, that of 0.5 to 1 or less was evaluated as indicating additive action, and that of 1 to 4 or less was evaluated as indicating indifferent action.
(§15) FIC Index=(MIC value of drug A during combination use/MIC value of drug A when used alone)+(MIC value of drug B during combination use/MIC value of drug B when used alone) (Calculation Formula)

A. flavus = experiment: as above; format: cell-based, Aspergillus flavus; settings: A. flavus (4 strains), Table 1
Method: as §7
(§16) An Aspergillus strain stored frozen at −80° C., or spores obtained by static culturing at 35° C. for 1 week in Potato Dextrose agar medium (PDA, Eiken Chemical Co., Ltd.) followed by scraping from the container with a metal loop, was diluted with RPMI 1640 medium containing 0.165 M MOPS to prepare a fungus liquid having a fungus concentration of 0.75×10^4 cells/mL to 1.33×10^4 cells/mL.
as §9, §10, §11, §12, §13, §14, §15

C. glabrata = experiment: as above; format: cell-based, Candida glabrata; settings: C. glabrata (10 strains); combination use with Test Compound 1
Method: as §7, §8, §9, §10, §11, §12, §13, §14, §15

A. fumigatus = experiment: as above; format: cell-based, Aspergillus fumigatus; settings: A. fumigatus (18 strains)
Method: as §7, §16, §9, §10, §11, §12, §13, §14, §15

C. tropicalis = experiment: as above; format: cell-based, Candida tropicalis; settings: C. tropicalis (10 strains); combination use with Test Compound 1
Method: as §7, §8, §9, §10, §11, §12, §13, §14, §15

Row | SMILES | Ratio indicating Additive effect of combination use with Test Compound 1 (C. albicans) | Ratio indicating Antagonistic effect of combination use with Test Compound 1 (C. albicans) | Ratio indicating Indifferent effect of combination use with Test Compound 1 (C. albicans) | Ratio indicating Synergistic effect of combination use with Test Compound 1 (C. albicans) | Ratio indicating Additive effect of combination use with Test Compound 1 (A. flavus) | Ratio indicating Antagonistic effect of combination use with Test Compound 1 (A. flavus) | Ratio indicating Indifferent effect of combination use with Test Compound 1 (A. flavus) | Ratio indicating Synergistic effect of combination use with Test Compound 1 (A. flavus) | Ratio indicating Additive effect of combination use with Test Compound 1 (C. glabrata) | Ratio indicating Antagonistic effect of combination use with Test Compound 1 (C. glabrata) | Ratio indicating Indifferent effect of combination use with Test Compound 1 (C. glabrata) | Ratio indicating Synergistic effect of combination use with Test Compound 1 (C. glabrata) | Combination effects in mouse Aspergillus fumigatus infection model [2] | Ratio indicating Additive effect of combination use with Test Compound 1 (A. fumigatus) | Ratio indicating Antagonistic effect of combination use with Test Compound 1 (A. fumigatus) | Ratio indicating Indifferent effect of combination use with Test Compound 1 (A. fumigatus) | Ratio indicating Synergistic effect of combination use with Test Compound 1 (A. fumigatus) | Ratio indicating Additive effect of combination use with Test Compound 1 (C. tropicalis) | Ratio indicating Antagonistic effect of combination use with Test Compound 1 (C. tropicalis) | Ratio indicating Indifferent effect of combination use with Test Compound 1 (C. tropicalis) | other results
1 | Nc1ncccc1-c1cc(Cc2ccc(COc3ccccn3)cc2)no1 [Test Compound 1, 3-(3-(4-(pyridin-2-yloxymethyl)-benzyl)-isoxazol-5-yl)-pyridin-2-ylamine] | – | – | – | – | – | – | – | – | – | – | – | – | – | – | – | – | – | – | – | – | 14-day survival rate ([1]; Test Compound 1 5 mg/kg, Table 4 AMPH experiment): 20%; 14-day survival rate ([1]; Test Compound 1 5 mg/kg, Table 4 MCFG experiment): 12.5%; 14-day survival rate ([1]; Test Compound 1 5 mg/kg, Table 4 RVCZ experiment): 20%; 14-day survival rate ([1]; Test Compound 1 8 mg/kg, Table 4 CSFG experiment): 0%; 14-day survival rate ([1]; Test Compound 1 10 mg/kg, Table 4 AMPH experiment): 60%; 14-day survival rate ([1]; Test Compound 1 10 mg/kg, Table 4 RVCZ experiment): 60%; 14-day survival rate ([1]; Test Compound 1 16 mg/kg, Table 4 CSFG experiment): 80%; 14-day survival rate ([2]; Test Compound 1 10 mg/kg, Table 3 MCFG experiment): 0%; 14-day survival rate ([2]; Test Compound 1 10 mg/kg, Table 3 RVCZ experiment): 0%; 14-day survival rate ([2]; Test Compound 1 10 mg/kg, Table 3 VRCZ experiment): 40%; 14-day survival rate ([2]; Test Compound 1 20 mg/kg, Table 3 MCFG experiment): 20%; 14-day survival rate ([2]; Test Compound 1 20 mg/kg, Table 3 RVCZ experiment): 20%; 14-day survival rate ([2]; Test Compound 1 20 mg/kg, Table 3 VRCZ experiment): 40%
2 | CCCCCOc1ccc(-c2cc(-c3ccc(C(=O)N[C@H]4C[C@@H](O)[C@@H](O)NC(=O)[C@@H]5[C@@H](O)[C@@H](C)CN5C(=O)[C@H]([C@H](O)CC(N)=O)NC(=O)[C@H]([C@H](O)[C@@H](O)c5ccc(O)c(OS(=O)(=O)O)c5)NC(=O)[C@@H]5C[C@@H](O)CN5C(=O)[C@H]([C@@H](C)O)NC4=O)cc3)no2)cc1 [Micafungin, micafungin] (X1-[Orn(4R-OH,5R-OH)]T[Hyp][hTyr(3S-OH,4S-OH,3'-OSO3H)][Gln(3R-OH)][Pro(3S-OH,4S-Me)]; lactam 1-C) | 80% | 0% | 20% | 0% | 0% | 0% | 0% | 100% | 70% | 0% | 30% | 0% | synergistic combination effects | 0% | 0% | 0% | 100% | 100% | 0% | 0% | 14-day survival rate ([1]; MCFG 0.25 mg/kg, Table 5): 0%; 14-day survival rate ([1]; MCFG 0.5 mg/kg, Table 4): 50%; 14-day survival rate ([1]; MCFG 0.5 mg/kg, Table 5): 33.3%; Combined effects in mouse Aspergillus flavus infection model ([1]; combination with the test compound of the invention): synergistic combined effects; 14-day survival rate ([2]; MCFG 1 mg/kg): 0%; 14-day survival rate ([2]; MCFG 2 mg/kg): 40%; Ratio indicating Synergistic effect of combination use with Test Compound 1 (C. tropicalis): 0%
3 | C[C@@H](c1ncncc1F)[C@](O)(Cn1cncn1)c1ccc(F)cc1F [Voriconazole, voriconazole] | 75% | 0% | 10% | 15% | 50% | 0% | 50% | 0% | 60% | 0% | 10% | 30% | synergistic combination effects | 28% | 0% | 67% | 6% | 0% | 0% | 0% | 14-day survival rate ([2]; VRCZ 1 mg/kg): 0%; 14-day survival rate ([2]; VRCZ 2 mg/kg): 20%; Ratio indicating Synergistic effect of combination use with Test Compound 1 (C. tropicalis): 100%
